Reference: patent US11208412B2 (DAEGU-GYEONGBUK MEDICAL INNOVATION FOUNDATION, priority 2017, dated 2021)
Like-named read-outs stand apart in the source and are kept apart here.

Legend:
Experiment in all cases: Kinase selectivity, DiscoverX scanMAX Kinase assay panel (% control)
Format in all cases: binding
[1] = molecular target: T1, kinases of the scanMAX Kinase assay panel (Homo sapiens, UniProt O14730); conditions: kinase RIOK3; 1 uM in DMSO
T1 construct: purchased DiscoverX Co. (contract measurement) scanMAX Kinase assay panel
T1 sequence (O14730 1-519): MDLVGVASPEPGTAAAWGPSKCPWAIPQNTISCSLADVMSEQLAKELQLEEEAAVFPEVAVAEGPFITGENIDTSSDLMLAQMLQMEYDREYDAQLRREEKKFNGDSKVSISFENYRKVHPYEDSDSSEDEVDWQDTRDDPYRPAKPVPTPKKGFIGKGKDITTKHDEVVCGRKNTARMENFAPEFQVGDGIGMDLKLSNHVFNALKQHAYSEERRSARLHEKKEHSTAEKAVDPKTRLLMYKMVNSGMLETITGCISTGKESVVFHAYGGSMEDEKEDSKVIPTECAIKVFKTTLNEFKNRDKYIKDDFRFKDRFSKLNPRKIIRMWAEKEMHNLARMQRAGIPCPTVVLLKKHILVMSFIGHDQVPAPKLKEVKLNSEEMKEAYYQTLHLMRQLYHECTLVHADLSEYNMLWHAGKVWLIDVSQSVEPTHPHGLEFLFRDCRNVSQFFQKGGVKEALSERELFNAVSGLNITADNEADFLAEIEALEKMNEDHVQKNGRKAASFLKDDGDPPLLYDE
Procedure, shortened: (§1)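 Compounds were tested at 1 uM (in DMSO) against each panel kinase. % control was calculated as (compound − positive control)/(negative control − positive control)×100, where the positive control gives 0% and DMSO gives 100%. Activity toward a kinase was called at % control <35%.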

[2] = molecular target: T2, kinases of the scanMAX Kinase assay panel (Homo sapiens, UniProt Q9UK32); conditions: 1 uM in DMSO
T2 construct: purchased DiscoverX Co. (contract measurement) scanMAX Kinase assay panel
T2 sequence (Q9UK32 whole entry): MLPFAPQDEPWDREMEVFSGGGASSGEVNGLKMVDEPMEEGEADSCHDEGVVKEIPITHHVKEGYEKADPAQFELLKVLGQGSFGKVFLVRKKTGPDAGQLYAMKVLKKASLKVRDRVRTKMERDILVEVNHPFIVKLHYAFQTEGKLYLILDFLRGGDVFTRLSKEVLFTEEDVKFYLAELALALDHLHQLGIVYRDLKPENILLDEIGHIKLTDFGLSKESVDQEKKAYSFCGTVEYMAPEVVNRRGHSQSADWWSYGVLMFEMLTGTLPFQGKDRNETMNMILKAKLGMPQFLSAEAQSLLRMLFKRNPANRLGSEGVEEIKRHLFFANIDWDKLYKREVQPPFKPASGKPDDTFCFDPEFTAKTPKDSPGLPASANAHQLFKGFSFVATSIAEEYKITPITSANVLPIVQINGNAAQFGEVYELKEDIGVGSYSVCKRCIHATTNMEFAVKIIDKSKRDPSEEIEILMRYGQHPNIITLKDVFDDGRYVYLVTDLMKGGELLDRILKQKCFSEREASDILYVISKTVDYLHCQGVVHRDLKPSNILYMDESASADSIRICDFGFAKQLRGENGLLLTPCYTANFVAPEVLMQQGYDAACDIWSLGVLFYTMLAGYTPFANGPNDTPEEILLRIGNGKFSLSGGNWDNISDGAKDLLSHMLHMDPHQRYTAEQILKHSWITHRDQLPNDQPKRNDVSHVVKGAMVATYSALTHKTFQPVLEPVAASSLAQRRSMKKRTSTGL
Procedure, shortened: as §1

[3] = molecular target: T3, kinases of the scanMAX Kinase assay panel (Homo sapiens, UniProt Q8IVW4); conditions: CDKL3; 1 uM
T3 construct: purchased DiscoverX Co. (contract measurement) scanMAX Kinase assay panel
T3 sequence (Q8IVW4 whole entry): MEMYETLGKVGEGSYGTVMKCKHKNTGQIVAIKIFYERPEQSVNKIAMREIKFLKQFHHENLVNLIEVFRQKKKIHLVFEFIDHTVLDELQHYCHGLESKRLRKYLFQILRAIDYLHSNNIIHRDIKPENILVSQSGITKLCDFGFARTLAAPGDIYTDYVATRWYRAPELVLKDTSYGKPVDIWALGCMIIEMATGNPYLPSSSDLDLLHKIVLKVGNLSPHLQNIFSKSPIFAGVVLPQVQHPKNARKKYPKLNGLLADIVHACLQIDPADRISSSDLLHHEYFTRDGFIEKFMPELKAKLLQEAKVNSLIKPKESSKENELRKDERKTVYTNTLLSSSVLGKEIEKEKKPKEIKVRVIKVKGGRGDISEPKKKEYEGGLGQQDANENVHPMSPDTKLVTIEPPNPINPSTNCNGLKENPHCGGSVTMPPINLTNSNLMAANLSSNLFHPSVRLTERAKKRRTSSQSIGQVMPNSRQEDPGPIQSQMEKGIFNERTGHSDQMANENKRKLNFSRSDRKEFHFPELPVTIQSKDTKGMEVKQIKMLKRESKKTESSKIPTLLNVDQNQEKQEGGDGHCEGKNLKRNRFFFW
Procedure, shortened: as §1

[4] = molecular target: T4, kinases of the scanMAX Kinase assay panel (Homo sapiens, UniProt P53778); conditions: p38-gamma; 1 uM
T4 construct: purchased DiscoverX Co. (contract measurement) scanMAX Kinase assay panel
T4 sequence (P53778 1-367): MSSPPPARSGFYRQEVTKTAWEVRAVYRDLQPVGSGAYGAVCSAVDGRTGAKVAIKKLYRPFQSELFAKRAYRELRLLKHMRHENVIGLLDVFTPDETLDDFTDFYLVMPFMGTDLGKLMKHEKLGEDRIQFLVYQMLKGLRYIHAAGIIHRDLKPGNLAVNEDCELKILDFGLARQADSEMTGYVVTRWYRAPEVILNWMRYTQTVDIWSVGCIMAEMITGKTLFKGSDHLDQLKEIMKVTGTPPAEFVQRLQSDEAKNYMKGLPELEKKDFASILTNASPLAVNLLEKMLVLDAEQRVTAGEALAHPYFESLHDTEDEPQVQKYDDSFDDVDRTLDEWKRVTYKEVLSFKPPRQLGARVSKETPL
Procedure, shortened: as §1

[5] = molecular target: T5, kinases of the scanMAX Kinase assay panel (Homo sapiens, UniProt P31751); conditions: AKT2; 1 uM
T5 construct: purchased DiscoverX Co. (contract measurement) scanMAX Kinase assay panel
T5 sequence (P31751 whole entry): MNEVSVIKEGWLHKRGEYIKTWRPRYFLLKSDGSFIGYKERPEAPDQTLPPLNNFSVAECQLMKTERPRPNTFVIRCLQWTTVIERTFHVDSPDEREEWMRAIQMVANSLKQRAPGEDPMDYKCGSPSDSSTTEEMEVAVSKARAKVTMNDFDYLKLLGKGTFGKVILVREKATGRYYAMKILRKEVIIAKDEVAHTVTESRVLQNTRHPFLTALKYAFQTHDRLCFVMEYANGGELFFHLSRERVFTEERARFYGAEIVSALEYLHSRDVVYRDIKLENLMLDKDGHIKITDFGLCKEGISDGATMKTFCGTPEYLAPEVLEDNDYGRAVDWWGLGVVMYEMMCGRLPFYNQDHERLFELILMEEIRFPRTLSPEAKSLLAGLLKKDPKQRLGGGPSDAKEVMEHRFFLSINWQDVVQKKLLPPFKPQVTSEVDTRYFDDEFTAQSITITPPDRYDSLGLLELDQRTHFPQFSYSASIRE
Procedure, shortened: as §1

[6] = molecular target: T6, kinases of the scanMAX Kinase assay panel (Homo sapiens, UniProt P0C264); conditions: kinase SgK110; 1 uM in DMSO
T6 construct: purchased DiscoverX Co. (contract measurement) scanMAX Kinase assay panel
T6 sequence (P0C264 1-359): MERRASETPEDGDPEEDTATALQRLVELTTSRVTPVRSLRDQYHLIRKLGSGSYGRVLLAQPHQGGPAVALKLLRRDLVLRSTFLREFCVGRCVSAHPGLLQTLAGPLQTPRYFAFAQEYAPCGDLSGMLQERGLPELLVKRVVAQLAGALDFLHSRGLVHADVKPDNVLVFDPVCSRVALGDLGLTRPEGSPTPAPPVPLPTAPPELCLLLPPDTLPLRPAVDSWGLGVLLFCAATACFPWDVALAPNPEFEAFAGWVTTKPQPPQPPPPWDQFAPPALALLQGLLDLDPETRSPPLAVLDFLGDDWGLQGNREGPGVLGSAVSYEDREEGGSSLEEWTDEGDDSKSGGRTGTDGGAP
Procedure, shortened: as §1

[7] = molecular target: T7, kinases of the scanMAX Kinase assay panel (Homo sapiens, UniProt P10721); conditions: 1 uM
T7 construct: purchased DiscoverX Co. (contract measurement) scanMAX Kinase assay panel
T7 sequence (P10721 26-976): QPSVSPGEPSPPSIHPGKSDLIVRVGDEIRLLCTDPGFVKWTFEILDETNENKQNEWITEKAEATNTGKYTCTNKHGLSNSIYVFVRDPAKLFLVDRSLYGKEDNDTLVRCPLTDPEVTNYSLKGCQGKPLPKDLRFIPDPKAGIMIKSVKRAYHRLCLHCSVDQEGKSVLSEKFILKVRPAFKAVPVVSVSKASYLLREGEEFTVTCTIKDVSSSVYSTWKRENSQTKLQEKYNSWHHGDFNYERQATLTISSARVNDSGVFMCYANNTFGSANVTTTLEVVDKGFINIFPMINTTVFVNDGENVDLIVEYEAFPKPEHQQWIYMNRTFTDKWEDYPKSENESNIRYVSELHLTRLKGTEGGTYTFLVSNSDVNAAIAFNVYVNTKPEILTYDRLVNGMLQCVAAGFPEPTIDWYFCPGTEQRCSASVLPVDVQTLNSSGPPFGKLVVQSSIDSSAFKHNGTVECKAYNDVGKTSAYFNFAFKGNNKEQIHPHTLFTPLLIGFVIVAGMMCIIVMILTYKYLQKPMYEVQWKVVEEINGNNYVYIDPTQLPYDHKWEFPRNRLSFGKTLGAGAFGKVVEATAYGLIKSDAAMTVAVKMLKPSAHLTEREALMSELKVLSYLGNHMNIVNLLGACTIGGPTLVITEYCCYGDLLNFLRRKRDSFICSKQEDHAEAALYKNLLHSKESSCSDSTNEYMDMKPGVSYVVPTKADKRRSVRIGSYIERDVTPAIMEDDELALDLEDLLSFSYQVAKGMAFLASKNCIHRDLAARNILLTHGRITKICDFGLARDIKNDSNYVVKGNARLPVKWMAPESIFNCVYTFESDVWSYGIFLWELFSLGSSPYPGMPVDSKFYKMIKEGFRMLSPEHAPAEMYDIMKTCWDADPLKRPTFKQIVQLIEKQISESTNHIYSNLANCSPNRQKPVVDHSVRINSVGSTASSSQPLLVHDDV
Procedure, shortened: as §1

[8] = molecular target: T8, kinases of the scanMAX Kinase assay panel (Homo sapiens, UniProt Q86UE8); conditions: kinase TLK2; 1 uM in DMSO
T8 construct: purchased DiscoverX Co. (contract measurement) scanMAX Kinase assay panel
T8 sequence (Q86UE8 whole entry): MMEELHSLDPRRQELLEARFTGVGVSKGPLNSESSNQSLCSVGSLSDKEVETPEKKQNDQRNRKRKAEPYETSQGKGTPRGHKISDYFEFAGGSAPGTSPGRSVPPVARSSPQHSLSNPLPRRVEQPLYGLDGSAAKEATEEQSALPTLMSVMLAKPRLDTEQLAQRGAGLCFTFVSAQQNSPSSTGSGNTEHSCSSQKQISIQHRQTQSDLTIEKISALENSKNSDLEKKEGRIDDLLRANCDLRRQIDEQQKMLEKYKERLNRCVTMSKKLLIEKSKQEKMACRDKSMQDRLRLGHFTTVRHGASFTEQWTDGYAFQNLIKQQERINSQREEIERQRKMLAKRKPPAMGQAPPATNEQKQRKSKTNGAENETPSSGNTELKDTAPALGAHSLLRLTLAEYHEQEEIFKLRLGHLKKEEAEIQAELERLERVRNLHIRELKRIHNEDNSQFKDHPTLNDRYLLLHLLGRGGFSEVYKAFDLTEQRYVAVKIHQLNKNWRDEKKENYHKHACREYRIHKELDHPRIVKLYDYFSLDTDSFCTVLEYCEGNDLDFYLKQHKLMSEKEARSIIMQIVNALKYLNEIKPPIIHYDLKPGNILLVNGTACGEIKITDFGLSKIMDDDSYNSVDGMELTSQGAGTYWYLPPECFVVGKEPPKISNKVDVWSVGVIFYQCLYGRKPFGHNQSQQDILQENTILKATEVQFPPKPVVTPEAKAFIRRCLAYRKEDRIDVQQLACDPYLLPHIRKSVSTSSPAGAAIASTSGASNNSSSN
Procedure, shortened: as §1

[9] = molecular target: T9, kinases of the scanMAX Kinase assay panel (Homo sapiens, UniProt P23443); conditions: kinase S6K1; 1 uM in DMSO
T9 construct: purchased DiscoverX Co. (contract measurement) scanMAX Kinase assay panel
T9 sequence (P23443 whole entry): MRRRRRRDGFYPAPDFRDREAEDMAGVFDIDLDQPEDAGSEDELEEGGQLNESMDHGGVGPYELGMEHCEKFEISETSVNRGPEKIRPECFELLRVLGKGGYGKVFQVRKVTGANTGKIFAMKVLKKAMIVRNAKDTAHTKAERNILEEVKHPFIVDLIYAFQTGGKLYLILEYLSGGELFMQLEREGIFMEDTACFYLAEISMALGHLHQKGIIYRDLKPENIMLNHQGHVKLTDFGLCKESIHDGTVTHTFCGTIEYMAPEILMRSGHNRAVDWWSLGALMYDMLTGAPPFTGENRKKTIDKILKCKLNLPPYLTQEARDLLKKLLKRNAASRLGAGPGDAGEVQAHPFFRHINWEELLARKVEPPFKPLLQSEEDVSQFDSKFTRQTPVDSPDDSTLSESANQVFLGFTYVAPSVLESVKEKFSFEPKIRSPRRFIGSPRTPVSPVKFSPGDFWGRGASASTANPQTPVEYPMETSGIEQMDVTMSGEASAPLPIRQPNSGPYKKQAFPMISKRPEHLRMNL
Procedure, shortened: as §1

[10] = molecular target: T10, kinases of the scanMAX Kinase assay panel (Homo sapiens, UniProt Q9NQU5); conditions: PAK6; 1 uM
T10 construct: purchased DiscoverX Co. (contract measurement) scanMAX Kinase assay panel
T10 sequence (Q9NQU5 whole entry): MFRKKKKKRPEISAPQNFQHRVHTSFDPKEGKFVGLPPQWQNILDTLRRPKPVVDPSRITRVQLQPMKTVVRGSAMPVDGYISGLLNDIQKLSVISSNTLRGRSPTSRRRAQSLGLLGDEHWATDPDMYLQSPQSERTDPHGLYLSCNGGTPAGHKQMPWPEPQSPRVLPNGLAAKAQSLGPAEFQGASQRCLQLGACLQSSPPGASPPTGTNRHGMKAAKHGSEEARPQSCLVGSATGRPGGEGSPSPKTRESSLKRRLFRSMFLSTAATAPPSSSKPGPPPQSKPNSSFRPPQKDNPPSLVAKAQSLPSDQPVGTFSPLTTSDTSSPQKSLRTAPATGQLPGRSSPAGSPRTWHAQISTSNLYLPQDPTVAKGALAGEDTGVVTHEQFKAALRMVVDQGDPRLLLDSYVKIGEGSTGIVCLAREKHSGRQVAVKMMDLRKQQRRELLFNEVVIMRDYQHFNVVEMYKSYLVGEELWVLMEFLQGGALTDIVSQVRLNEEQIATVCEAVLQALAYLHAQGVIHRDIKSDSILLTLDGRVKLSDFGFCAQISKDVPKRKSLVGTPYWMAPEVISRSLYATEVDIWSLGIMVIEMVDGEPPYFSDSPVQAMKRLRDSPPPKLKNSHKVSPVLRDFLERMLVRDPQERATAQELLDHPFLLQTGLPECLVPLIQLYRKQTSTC
Procedure, shortened: as §1

[11] = kinase RSK4(Kin.Dom.1-N-terminal), read-out: % control, RSK4(Kin.Dom.1-N-terminal)
[12] = kinase RSK4(Kin.Dom.2-C-terminal), read-out: % control, RSK4(Kin.Dom.2-C-terminal)

Row | Structure (SMILES) | remaining binding at 1 µM [1] [%] | remaining binding at 1 µM [2, 11] [%] | remaining binding at 1 µM [2, 12] [%] | remaining binding at 1 µM [3] [%] | remaining binding at 1 µM [4] [%] | remaining binding at 1 µM [5] [%] | remaining binding at 1 µM [6] [%] | remaining binding at 1 µM ([7]; KIT-autoinhibited) [%] | remaining binding at 1 µM ([7]; KIT) [%] | remaining binding at 1 µM [8] [%] | remaining binding at 1 µM [9] [%] | remaining binding at 1 µM [10] [%]
1 | CCNc1nc(Nc2ccc(C(=O)N3CCC(N4CCOCC4)CC3)cc2OC)nc2[nH]cc(C(F)(F)F)c12 [Example 104, (4-((4-(ethylamino)-5-(trifluoromethyl)-7H-pyrrolo[2,3-d]pyrimidine-2-yl)amino)-3-methoxyphenyl)(4-morpholinopiperidine-1-yl)methanone] | 100 | 95 | 97 | 100 | 89 | 94 | 100 | 74 | 56 | 93 | 80 | 91
2 | CNc1nc(Nc2ccc(C(=O)N3CCOCC3)cc2OC)nc2[nH]cc(C#N)c12 [Example 1, 2-((2-methoxy-4-(morpholine-4-carbonyl)phenyl)amino)-4-(methylamino)-7H-pyrrolo[2,3-d]pyrimidine-5-carbonitrile] | 97 | 79 | 77 | 93 | 70 | 86 | 100 | 59 | 48 | 95 | 70 | 76
3 | CC1(Nc2nc(Nc3cnn([C@H]4CCN(C5COC5)C[C@@H]4F)c3Cl)nc3[nH]cc(C#N)c23)CC1 [Example 52, 2-((5-chloro-1-((3S,4S)-3-fluoro-1-(oxetane-3-yl)piperidine-4-yl)-1H-pyrazole-4-yl)amino)((1-methylcyclopropyl)amino)-7H-pyrrolo[2,3-d]pyrimidine-5-carbonitrile] | 0.4 | 7.1 | 75 | 100 | 77 | 100 | 32 | 0.1 | 0.15 | 42 | 52 | 8.3
